Measurements as given in patent US9284333B2, “Fused pyrroledicarboxamides and their use as pharmaceuticals” (SANOFI, priority 2012, dated 2016).

Molecular target: Human TASK-1 channels (Homo sapiens (Human), UniProt O14649)
Experiment: Determination of the activity on the TASK-1 channel in Xenopus oocytes (two-microelectrode voltage clamp)
Type: cell-based
Details: for inhibition at 5 µM: compound concentration 5 μM; for IC50: human TASK-1 expressed in Xenopus oocytes, room temperature, read-out: IC50 value for TASK-1 inhibition
Procedure, shortened: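 Current during 500 ms pulses to 40 mV from a −90 mV hold was recorded in oocytes expressing human TASK-1 for two days after cRNA injection. Compounds were added cumulatively to the ND96 bath (pH 7.4, room temperature). IC50 came from dose-response fitting of inhibition relative to pre-compound current.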

Chain of Human TASK-1 channels (O14649 whole entry): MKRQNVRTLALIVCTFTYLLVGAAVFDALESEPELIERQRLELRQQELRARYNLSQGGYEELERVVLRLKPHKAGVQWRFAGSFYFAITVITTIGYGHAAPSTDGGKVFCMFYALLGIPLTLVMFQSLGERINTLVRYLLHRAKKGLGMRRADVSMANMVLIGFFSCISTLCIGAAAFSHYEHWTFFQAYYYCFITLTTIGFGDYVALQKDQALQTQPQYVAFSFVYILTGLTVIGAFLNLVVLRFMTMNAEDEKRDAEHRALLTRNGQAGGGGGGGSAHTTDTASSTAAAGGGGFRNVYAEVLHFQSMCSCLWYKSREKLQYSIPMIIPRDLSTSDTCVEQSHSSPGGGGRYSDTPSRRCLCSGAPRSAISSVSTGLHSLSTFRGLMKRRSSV

CC[C@@H](NC(=O)c1cc(C(=O)N2CCC[C@@H]2C)c2n1CCOC2)c1ccc(C(F)(F)F)nc1 [16nk, 8-((S)-2-Methyl-pyrrolidine-1-carbonyl)-3,4-dihydro-1H-pyrrolo[2,1-c][1,4]oxazine-6-carboxylic acid [(R)-1-(6-trifluoromethyl-pyridin-3-yl)-propyl]-amide]
inhibition at 5 µM: 62%

CC[C@@H](NC(=O)c1cc(C(=O)N2CCC[C@@H]2C)c2n1CCOC2)c1ccc(C#N)cc1 [16nl, 8-((S)-2-Methyl-pyrrolidine-1-carbonyl)-3,4-dihydro-1H-pyrrolo[2,1-c][1,4]oxazine-6-carboxylic acid [(R)-1-(4-cyano-phenyl)-propyl]-amide]
inhibition at 5 µM: 70%

CC(C)[C@@H](NC(=O)c1cc(C(=O)N2CCC[C@@H]2C)c2n1CCOC2)c1ccc(C#N)nc1 [16nm, 8-((S)-2-Methyl-pyrrolidine-1-carbonyl)-3,4-dihydro-1H-pyrrolo[2,1-c][1,4]oxazine-6-carboxylic acid [(R)-1-(6-cyano-pyridin-3-yl)-2-methyl-propyl]-amide]
inhibition at 5 µM: 77%

CC[C@@H](NC(=O)c1cc(C(=O)N2CC[C@H](OC)C2)n2c1COCC2)c1ccc(F)cc1Cl [16nn, 6-((S)-3-Methoxy-pyrrolidine-1-carbonyl)-3,4-dihydro-1H-pyrrolo[2,1-c][1,4]oxazine-8-carboxylic acid [(R)-1-(2-chloro-4-fluoro-phenyl)-propyl]-amide]
IC50: 270 nM

CC[C@@H](NC(=O)c1cc(C(=O)NCc2cnccn2)n2c1COCC2)c1ccc(F)cc1Cl [16no, 3,4-Dihydro-1H-pyrrolo[2,1-c][1,4]oxazine-6,8-dicarboxylic acid 8-{[(R)-1-(2-chloro-4-fluoro-phenyl)-propyl]-amide} 6-[(pyrazin-2-ylmethyl)-amide]]
IC50: 170 nM

CC[C@@H](NC(=O)c1cc(C(=O)NC(C)c2ncccn2)n2c1COCC2)c1ccc(F)cc1Cl (stereo partly drawn) [16np, 3,4-Dihydro-1H-pyrrolo[2,1-c][1,4]oxazine-6,8-dicarboxylic acid 8-{[(R)-1-(2-chloro-4-fluoro-phenyl)-propyl]-amide} 6-[(1-pyrimidin-2-yl-ethyl)-amide]]
IC50: 170 nM

CC[C@@H](NC(=O)c1cc(C(=O)N[C@H](C)c2cnccn2)n2c1COCC2)c1ccccc1Cl [16nq, 3,4-Dihydro-1H-pyrrolo[2,1-c][1,4]oxazine-6,7-dicarboxylic acid 8-{[(R)-1-(2-chloro-phenyl)-propyl]-amide} 6-[((R)-1-pyrazin-2-yl-ethyl)-amide]]
IC50: 480 nM

CC[C@@H](NC(=O)c1cc(C(=O)NC(C)c2ncccn2)n2c1COCC2)c1ccccc1Cl (stereo partly drawn) [16nr, 3,4-Dihydro-1H-pyrrolo[2,1-c][1,4]oxazine-6,8-dicarboxylic acid 8-{[(R)-1-(2-chloro-phenyl)-propyl]-amide} 6-[(1-pyrimidin-2-yl-ethyl)-amide]]
IC50: 310 nM

CC[C@@H](NC(=O)c1cc(C(=O)NCc2ccc(F)cc2F)c2n1CCOC2)c1cnccn1 [16ns, 3,4-Dihydro-1H-pyrrolo[2,1-c][1,4]oxazine-6,8-dicarboxylic acid 8-(2,4-difluoro-benzylamide) 6-[((R)-1-pyrazin-2-yl-propyl)-amide]]
IC50: 3100 nM

CC[C@@H](NC(=O)c1cc(C(=O)NCc2ccc(F)cc2F)c2n1CCOC2)c1cccc(OC)n1 [16nt, 3,4-Dihydro-1H-pyrrolo[2,1-c][1,4]oxazine-6,8-dicarboxylic acid 8-(2,4-difluoro-benzylamide) 6-{[(R)-1-(6-methoxy-pyridin-2-yl)-propyl]-amide}]
IC50: 670 nM

C[C@H]1CCCN1C(=O)c1cc(C(=O)NCc2c(F)cccc2Cl)c2n1CCOC2 [16nu, 6-((S)-2-Methyl-pyrrolidine-1-carbonyl)-3,4-dihydro-1H-pyrrolo[2,1-c][1,4]oxazine-8-carboxylic acid 2-chloro-6-fluoro-benzylamide]
IC50: 150 nM

CC[C@@H](NC(=O)c1cc(C(=O)N[C@H](C)c2ccc(F)cc2)c2n1CCOC2)c1ncccn1 [16nv, 3,4-Dihydro-1H-pyrrolo[2,1-c][1,4]oxazine-6,8-dicarboxylic acid 8-{[(R)-1-(4-fluoro-phenyl)-ethyl]-amide} 6-[((R)-1-pyrimidin-2-yl-propyl)-amide]]
IC50: 170 nM

CC[C@H](NC(=O)c1cc(C(=O)N[C@H](C)c2ccc(F)cc2)c2n1CCOC2)c1ncccn1 [16nw, 3,4-Dihydro-1H-pyrrolo[2,1-c][1,4]oxazine-6,8-dicarboxylic acid 8-{[(R)-1-(4-fluoro-phenyl)-ethyl]-amide} 6-[((S)-1-pyrimidin-2-yl-propyl)-amide]]
IC50: 200 nM

CC[C@@H](NC(=O)c1cc(C(=O)N2CCC[C@@H]2C)n2c1COC(C)(C)C2)c1ccc(C#N)cc1 [16nx, 3,3-Dimethyl-6-((S)-2-methyl-pyrrolidine-1-carbonyl)-3,4-dihydro-1H-pyrrolo[2,1-c][1,4]oxazine-8-carboxylic acid [(R)-1-(4-cyano-phenyl)-propyl]-amide]
IC50: 370 nM

CC[C@@H](NC(=O)c1cc(C(=O)N2CCC[C@H]2C)n2c1COCC2)c1ccc(C(F)(F)F)nc1 [16ny, 6-((R)-2-Methyl-pyrrolidine-1-carbonyl)-3,4-dihydro-1H-pyrrolo[2,1-c][1,4]oxazine-8-carboxylic acid [(R)-1-(6-trifluoromethyl-pyridin-3-yl)-propyl]-amide]
IC50: 2800 nM

CC[C@@H](NC(=O)c1cc(C(=O)N[C@H](C)C2CC2)n2c1COCC2)c1ccc(C(F)(F)F)nc1 [16nz, 3,4-Dihydro-1H-pyrrolo[2,1-c][1,4]oxazine-6,8-dicarboxylic acid 6-[((R)-1-cyclopropyl-ethyl)-amide] 8-{[(R)-1-(6-trifluoromethyl-pyridin-3-yl)-propyl]-amide}]
IC50: 2200 nM

CC[C@@H](NC(=O)c1cc(C(=O)N2CCC[C@@H]2C(F)(F)F)n2c1COCC2)c1ccc(C(F)(F)F)nc1 [16o, 6-((R)-2-Trifluoromethyl-pyrrolidine-1-carbonyl)-3,4-dihydro-1H-pyrrolo[2,1-c][1,4]oxazine-8-carboxylic acid [(R)-1-(6-trifluoromethyl-pyridin-3-yl)-propyl]-amide]
IC50: 410 nM

CC(C)[C@@H](NC(=O)c1cc(C(=O)N2CCC[C@@H]2C)n2c1COCC2)c1ccc(F)cc1 [16p, 6-((S)-2-Methyl-pyrrolidine-1-carbonyl)-3,4-dihydro-1H-pyrrolo[2,1-c][1,4]oxazine-8-carboxylic acid [(R)-1-(4-fluoro-phenyl)-2-methyl-propyl]-amide]
IC50: 380 nM

CC[C@@H](NC(=O)c1cc(C(=O)NC(C2CC2)C2CC2)n2c1COCC2)c1ccc(C(F)(F)F)nc1 [16pa, 3,4-Dihydro-1H-pyrrolo[2,1-c][1,4]oxazine-6,8-dicarboxylic acid 6-dicyclopropylmethyl-amide 8-{[(R)-1-(6-trifluoromethyl-pyridin-3-yl)-propyl]-amide}]
IC50: 1500 nM

CC[C@@H](NC(=O)c1cc(C(=O)N[C@H](CC)c2cccc(OC)n2)n2c1COCC2)c1ccc(C(F)(F)F)nc1 [16pb, 3,4-Dihydro-1H-pyrrolo[2,1-c][1,4]oxazine-6,8-dicarboxylic acid 6-{[(R)-1-(6-methoxy-pyridin-2-yl)-propyl]-amide} 8-{[(R)-1-(6-trifluoromethyl-pyridin-3-yl)-propyl]-amide}]
IC50: 520 nM

CC[C@@H](NC(=O)c1cc(C(=O)N2CCCCC2C)n2c1COCC2)c1ccc(C(F)(F)F)nc1 (stereo partly drawn) [16pc, 6-(2-Methyl-piperidine-1-carbonyl)-3,4-dihydro-1H-pyrrolo[2,1-c][1,4]oxazine-8-carboxylic acid [(R)-1-(6-trifluoromethyl-pyridin-3-yl)-propyl]-amide]
inhibition at 5 µM: 53%

CC[C@@H](NC(=O)c1cc(C(=O)N2CCC2C)n2c1COCC2)c1ccc(C(F)(F)F)nc1 (stereo partly drawn) [16pe, 6-(2-Methyl-azetidine-1-carbonyl)-3,4-dihydro-1H-pyrrolo[2,1-c][1,4]oxazine-8-carboxylic acid [(R)-1-(6-trifluoromethyl-pyridin-3-yl)-propyl]-amide]
inhibition at 5 µM: 69%

CC[C@@H](NC(=O)c1cc(C(=O)N2CCC[C@@H]2C)n2c1COCC2)c1ncccc1Cl [16pf]
IC50: 99 nM

CC[C@@H](NC(=O)c1cc(C(=O)N2CCC[C@@H]2C)n2c1COCC2)c1ccc(Cl)cc1 [16pg, 6-((S)-2-Methyl-pyrrolidine-1-carbonyl)-3,4-dihydro-1H-pyrrolo[2,1-c][1,4]oxazine-8-carboxylic acid [(R)-1-(4-chloro-phenyl)-propyl]-amide]
IC50: 190 nM

CC[C@@H](NC(=O)c1cc(C(=O)N2CCC[C@@H]2C)n2c1COCC2)c1ccccn1 [16ph, 6-((S)-2-Methyl-pyrrolidine-1-carbonyl)-3,4-dihydro-1H-pyrrolo[2,1-c][1,4]oxazine-8-carboxylic acid ((R)-1-pyridin-2-yl-propyl)-amide]
IC50: 650 nM

CC[C@@H](NC(=O)c1cc(C(=O)N2CCC[C@@H]2C)n2c1COC(C)(C)C2)c1ccc(C(F)(F)F)nc1 [16pi, 3,3-Dimethyl-6-((S)-2-methyl-pyrrolidine-1-carbonyl)-3,4-dihydro-1H-pyrrolo[2,1-c][1,4]oxazine-8-carboxylic acid [(R)-1-(6-trifluoromethyl-pyridin-3-yl)-propyl]-amide]
IC50: 850 nM

CC[C@@H](NC(=O)c1cc(C(=O)N2CCC[C@@H]2c2cnccn2)c2n1CCOC2)c1ccc(F)cc1F [16pj, 8-((R)-2-Pyrazin-2-yl-pyrrolidine-1-carbonyl)-3,4-dihydro-1H-pyrrolo[2,1-c][1,4]oxazine-6-carboxylic acid [(R)-1-(2,4-difluoro-phenyl)-propyl]-amide]
IC50: 1100 nM

CC(C)[C@@H](NC(=O)c1cc(C(=O)N2CCC[C@@H]2C)c2n1CCOC2)c1ccc(C(F)(F)F)nc1 [16po, 8-((S)-2-Methyl-pyrrolidine-1-carbonyl)-3,4-dihydro-1H-pyrrolo[2,1-c][1,4]oxazine-6-carboxylic acid [(R)-2-methyl-1-(6-trifluoromethyl-pyridin-3-yl)-propyl]-amide]
inhibition at 5 µM: 71%
